This is an account of results in patent publication US11530229B2, “Cyano cyclobutyl compounds for CBL-B inhibition and uses thereof” (Nurix Therapeutics, Inc., priority 2019, dated 2022).

Bounds are passed on as bounds.

Assay [1] deals with T1, Cbl-b (Homo sapiens (Human), UniProt Q13191). The experiment in a line: Cbl-b displacement assay (Cbl-b inhibition assay), Biological Example 1. It is filed as binding. Put shortly: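 Avitag-biotinylated human Cbl-b (residues 36–427) at 0.5 nM ("High") or 0.125 nM ("Low") pre-incubated 1 h with compound (1% DMSO) in HEPES pH 7.5/NaCl/Triton/BSA/TCEP, RT. Then 1 h with 150 nM BODIPY FL inhibitor probe (~EC40) plus 2 nM streptavidin-Tb. TR-FRET read at 520/620 nm for probe displacement.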
T1 sequence (Q13191 36-427): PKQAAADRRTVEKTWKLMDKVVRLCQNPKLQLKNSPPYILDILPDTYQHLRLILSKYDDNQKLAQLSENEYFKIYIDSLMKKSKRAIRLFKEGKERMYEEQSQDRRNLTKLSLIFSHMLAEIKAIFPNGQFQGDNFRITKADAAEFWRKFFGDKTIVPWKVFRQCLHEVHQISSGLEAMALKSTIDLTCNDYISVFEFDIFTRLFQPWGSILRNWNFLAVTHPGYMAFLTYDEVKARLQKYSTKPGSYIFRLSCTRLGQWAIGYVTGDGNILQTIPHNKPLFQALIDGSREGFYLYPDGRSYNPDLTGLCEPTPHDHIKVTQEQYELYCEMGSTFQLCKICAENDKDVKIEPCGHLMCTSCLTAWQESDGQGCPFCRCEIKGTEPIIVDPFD

The target in assay [2] is T1, Cbl-b. Description: Cbl-b displacement assay (Cbl-b inhibition assay), Biological Example 8. It is filed as binding. Conditions: Table 4. As for the experimental part: (§1) Candidate compounds were evaluated for their ability to bind and inhibit Cbl-b, an E3 ubiquitin-protein ligase, as evidenced by their ability to displace a fluorophore-labeled probe bound to Cbl-b.
(§2) The ability of candidate compounds to displace a known inhibitor and thereby inhibit Cbl-b activity was measured by monitoring the interaction of Cbl-b with a fluorophore-labeled probe in the presence of the candidate compound. A truncated variant of Cbl-b (UniProt number Q13191) containing residues 36-427 and an Avitag at its N-terminus was co-expressed with BirA biotin ligase and purified using a standard protocol (see Dou et al., Nature Structural and Molecular Biology 8: 982-987, 2013; Avidity LLC).
Fluorescently-labeled inhibitor probe was synthesized and tagged with BODIPY FL. Cbl-b displacement assays were performed in a 384-well plate at room temperature in a […] by pre-incubating 0.5 nM Cbl-b or 0.125 nM Cbl-b (final concentration, indicated as “High” and “Low,” respectively) in an assay buffer containing 20 mM HEPES pH 7.5, 150 mM NaCl, 0.01% Triton X-100, 0.01% BSA, and 0.5 mM TCEP in the presence of a candidate compound in 1% DMSO (final concentration) for 1 hour. After incubation in the presence of the candidate compound, the plate was incubated for an additional one hour in the presence of an approximate EC40 binding saturation consisting of 150 nM fluorescently-labeled inhibitor probe and 2 nM Streptavidin-Terbium (Cisbio) (final concentrations). Following the one hour incubation, the plates were read for TR-FRET signal at […] using an Envision plate reader (Perkin Elmer).
(§3) The resulting data for the Cbl-b activity assays were analyzed using standard methods to determine the IC50 values for the tested compounds.

In assay [3] the target is T1, Cbl-b. The experiment in a line: Cbl-b displacement assay (Cbl-b inhibition assay), Biological Example 12. It is filed as binding. The conditions noted are these: Table 7. As for the experimental part:
as §1, §2
Fluorescently-labeled inhibitor probe was synthesized and tagged with BODIPY FL. Cbl-b displacement assays were performed in a 384-well plate at room temperature in a […] by pre-incubating 0.5 nM Cbl-b or 0.125 nM Cbl-b (final concentration, indicated as “High” and “Low,” respectively) in an assay buffer containing 20 mM HEPES pH 7.5, 150 mM NaCl, 0.01% Triton X-100, 0.01% BSA and 0.5 mM TCEP in the presence of a candidate compound in 1% DMSO (final concentration) for one hour. After incubation in the presence of the candidate compound, the plate was incubated for an additional one hour in the presence of an approximate EC40 binding saturation consisting of 150 nM fluorescently-labeled inhibitor probe and 2 nM Streptavidin-Terbium (Cisbio) (final concentrations). Following the one hour incubation, the plates were read for TR-FRET signal at […] using an Envision plate reader (Perkin Elmer).
as §3

The subject of assay [4] is primary human total T-cells. Description: T-cell activation, IL-2 secretion, Biological Example 2. It is filed as cell-based. Conditions: 48 hours, fold change over baseline; for fold induction at 0.3 µM: 0.3 μM inhibitor; for fold induction at 1 µM: 1 μM inhibitor; for fold induction at 3 µM: 3 μM inhibitor.
The test system of assay [5] is primary human total T-cells. Description: T-cell activation, CD25 surface staining, Biological Example 2. It is filed as cell-based. The conditions noted are these: 48 hours, fold change over baseline; for fold induction at 0.3 µM: 0.3 μM inhibitor; for fold induction at 1 µM: 1 μM inhibitor; for fold induction at 3 µM: 3 μM inhibitor.
For assay [6], the system named is primary human total T-cells. The experiment in a line: T-cell activation, IL-2 secretion, Biological Example 9. It is filed as cell-based. Conditions: 48 hours, fold change over baseline, Table 5; for IL-2 secretion CD3/CD28 0.3 μM / IL-2 secretion CD3/CD28 1 μM: anti-CD3 and anti-CD28 co-stimulation; for IL-2 secretion CD3/CD28 0.3 μM: 0.3 μM inhibitor; for IL-2 secretion CD3/CD28 1 μM / IL-2 secretion CD3 1 μM: 1 μM inhibitor; for IL-2 secretion CD3 1 μM / IL-2 secretion CD3 3 μM: anti-CD3 stimulation alone; for IL-2 secretion CD3 3 μM: 3 μM inhibitor.

For assay [7], the system named is primary human total T-cells. Description: T-cell activation, CD25 surface staining, Biological Example 9. It is filed as cell-based. The conditions noted are these: anti-CD3 and anti-CD28 co-stimulation, 48 hours, fold change over baseline, Table 5.
Assay [8] relates to primary human total T-cells. Description: T-cell activation, IL-2 secretion, Biological Example 13. It is filed as cell-based. Conditions: 48 hours, fold change over baseline, Table 8; for IL-2 secretion CD3/CD28 0.3 μM / IL-2 secretion CD3/CD28 1 μM: anti-CD3 and anti-CD28 co-stimulation; for IL-2 secretion CD3/CD28 0.3 μM: 0.3 μM inhibitor; for IL-2 secretion CD3/CD28 1 μM / IL-2 secretion CD3 1 μM: 1 μM inhibitor; for IL-2 secretion CD3 1 μM / IL-2 secretion CD3 3 μM: anti-CD3 stimulation alone; for IL-2 secretion CD3 3 μM: 3 μM inhibitor.

For assay [9], the system named is primary human total T-cells. Description: T-cell activation, CD25 surface staining, Biological Example 13. It is filed as cell-based. Conditions: anti-CD3 and anti-CD28 co-stimulation, 48 hours, fold change over baseline, Table 8.
Setting [10] is: read-out: IC50 values in the Cbl-b inhibition assay of Biological Example 1.
Setting [11] is: 0.5 nM Cbl-b final concentration (High), read-out: Cbl-b IC50 (High).
[12] abbreviates: anti-CD3 and anti-CD28 co-stimulation.
Setting [13] is: anti-CD3 and anti-CD28 co-stimulation, read-out: IL-2 secretion CD3/CD28 1 μM.
[14] abbreviates: anti-CD3 stimulation alone, read-out: IL-2 secretion CD3 1 μM.
Where [15] appears, read: anti-CD3 and anti-CD28 co-stimulation, read-out: CD25 staining CD3/CD28 1 μM.
The mark [16] stands for this setting: anti-CD3 stimulation alone, read-out: CD25 staining CD3 1 μM.
Setting [17] is: 0.125 nM Cbl-b final concentration (Low), read-out: Cbl-b activity IC50 (Low).
[18] abbreviates: 0.125 nM Cbl-b final concentration (Low), read-out: Cbl-b IC50 (Low).

For `Cc1cc(C(=O)Nc2cccc([C@]3(Cc4nncn4C)C[C@@H](C#N)C3)c2)nc(C2CC2)n1` [Compound 1, N-(3-((1r,3r)-3-cyano-1-((4-methyl-4H-1,2,4-triazol-3-yl)methyl)cyclobutyl)phenyl)-2-cyclopropyl-6-methylpyrimidine-4-carboxamide], the IC50 was 2 to 5 nM in assay [1] (0.5 nM Cbl-b final concentration (High), read-out: Cbl-b activity IC50 (High)); 2 to 5 nM in [1] (setting [10]); 1 to 5 nM in assay [2] (setting [11]); 1 to 5 nM in assay [3] (setting [11]). In addition, the fold induction at 0.3 µM in [4] (setting [12]) is no more than 15; in assay [5] (setting [12]), 1.24 to 1.39. Moreover, the fold induction at 1 µM was no more than 15 in assay [4] (setting [13]), less than 0.4 in assay [4] (setting [14]), 1.24 to 1.39 in assay [5] (setting [15]) and 1 to 1.15 in [5] (setting [16]). For the same compound, the fold induction at 3 µM in assay [4] (anti-CD3 stimulation alone) was less than 0.4; in assay [5] (anti-CD3 stimulation alone) it was 1 to 1.15. Further, the figures for the “IL-2 secretion CD3/CD28 0.3 μM” value in assay [6] and in assay [8] were “C (C indicates <10 fold)” and “C (C indicates ≤10 fold)”, respectively. The “IL-2 secretion CD3/CD28 1 μM” value in assay [6] was “B (B indicates 10-15 fold)”; in assay [8], “B (B indicates 11-15 fold)”. Also, the “IL-2 secretion CD3 1 μM” value in assay [6] and in assay [8] was “B (B indicates 0.34-0.66 fold)” each time. The “IL-2 secretion CD3 3 μM” value in assay [6] and in [8] was “B (B indicates 0.34-0.66 fold)” throughout. In addition, the “CD25 staining CD3/CD28 0.3 μM” value in [7] (0.3 μM inhibitor) and in assay [9] (0.3 μM inhibitor) was “B (B indicates 1.25-1.39 fold)” throughout. The “CD25 staining CD3/CD28 1 μM” value in assay [7] (1 μM inhibitor) and in [9] (1 μM inhibitor) was “B (B indicates 1.25-1.39 fold)” throughout.
For the compound `C[C@@H]1CN(Cc2cc3c(c(C(F)(F)F)c2)CN(c2cccc([C@]4(Cc5nncn5C)C[C@@H](C#N)C4)c2)C3=O)CCC1(F)F` [Compound 11, (1R,3r)-3-(3-(6-(((R)-4,4-difluoro-3-methylpiperidin-1-yl)methyl)-1-oxo-4-(trifluoromethyl)isoindolin-2-yl)phenyl)-3-((4-methyl-4H-1,2,4-triazol-3-yl)methyl)cyclobutane-1-carbonitrile], the half-maximal inhibitory concentration (IC50) in [1] (setting [17]) is 1 to 2 nM; in assay [1] (setting [10]) it was 1 to 2 nM; in [2] (setting [18]) it was 1 to 5 nM; in assay [3] (setting [18]), 1 to 5 nM. Further, the fold induction at 0.3 µM in [4] (setting [12]) was greater than 20; in assay [5] (setting [12]), 1.24 to 1.39. Also, the fold induction at 1 µM is greater than 20 in assay [4] (setting [13]), greater than 0.85 in [4] (setting [14]), 1.24 to 1.39 in assay [5] (setting [15]) and 1 to 1.15 in assay [5] (setting [16]). Further, the results for the fold induction at 3 µM in assay [4] (anti-CD3 stimulation alone) and in assay [5] (anti-CD3 stimulation alone) were greater than 0.85 and no more than 1, respectively. Besides, the “IL-2 secretion CD3/CD28 0.3 μM” value in assay [6] and in [8] was “A (A indicates >15 fold)” each time. Further, the “IL-2 secretion CD3/CD28 1 μM” value in assay [6] and in [8] was “A (A indicates >15 fold)” throughout. The “IL-2 secretion CD3 1 μM” value in [6] and in [8] was “A (A indicates >0.66 fold)” each time. For the same compound, the “IL-2 secretion CD3 3 μM” value in assay [6] and in assay [8] was “A (A indicates >0.66 fold)” in each case.
Turning to `Cn1cnnc1C[C@]1(c2cccc(N3Cc4c(cc(CN[C@@H]5CCC(F)(F)C5)cc4C(F)(F)F)C3=O)c2)C[C@H](C#N)C1` [Compound 21, (1R,3r)-3-(3-(6-((((R)-3,3-difluorocyclopentyl)amino)methyl)-1-oxo-4-(trifluoromethyl)isoindolin-2-yl)phenyl)-3-((4-methyl-4H-1,2,4-triazol-3-yl)methyl)cyclobutane-1-carbonitrile], the IC50 in assay [1] (setting [17]), in assay [2] (setting [18]) and in [3] (setting [18]) was less than 1 nM in each case. In addition, the fold induction at 0.3 µM in assay [4] (setting [12]) was greater than 20; in assay [5] (setting [12]) it was greater than 1.39. Moreover, the fold induction at 1 µM in assay [4] (setting [13]) is greater than 20; in [4] (setting [14]) it was greater than 0.85; in assay [5] (setting [15]), greater than 1.39; in assay [5] (setting [16]) it was greater than 1.15. The fold induction at 3 µM is greater than 0.85 in assay [4] (anti-CD3 stimulation alone) and greater than 1.15 in [5] (anti-CD3 stimulation alone). In addition, the “IL-2 secretion CD3/CD28 0.3 μM” value in assay [6] and in [8] was “A (A indicates >15 fold)” throughout. The “IL-2 secretion CD3/CD28 1 μM” value in [6] and in [8] was “A (A indicates >15 fold)” each time. Besides, the “IL-2 secretion CD3 1 μM” value in assay [6] and in assay [8] was “A (A indicates >0.66 fold)” in each case. Besides, the “IL-2 secretion CD3 3 μM” value in assay [6] and in [8] was “A (A indicates >0.66 fold)” in each case.
